Source: patent US20130315843A1, “COMPOSITION FOR REDUCTION OF TRPA1 AND TRPV1 SENSATIONS” (priority 2012, published 2013)
Structures can show the parent of a compound that is named as a salt. Where two headings read alike, the source gives them in different places.

Experiments:
[1] = target: human TRPV1 (Homo sapiens, UniProt Q8NER1); test: FLIPR Ca2+ assay, reduction of L-Menthol activation of TRPV1; details: for inhibition at 100 µM: read-out: % Reduction of L-Menthol TRPV1 Activation
[2] = target: human TRPA1 (Homo sapiens, UniProt O75762); test: FLIPR Ca2+ assay, reduction of L-Menthol activation of TRPA1
Chain of human TRPA1 (O75762 whole entry): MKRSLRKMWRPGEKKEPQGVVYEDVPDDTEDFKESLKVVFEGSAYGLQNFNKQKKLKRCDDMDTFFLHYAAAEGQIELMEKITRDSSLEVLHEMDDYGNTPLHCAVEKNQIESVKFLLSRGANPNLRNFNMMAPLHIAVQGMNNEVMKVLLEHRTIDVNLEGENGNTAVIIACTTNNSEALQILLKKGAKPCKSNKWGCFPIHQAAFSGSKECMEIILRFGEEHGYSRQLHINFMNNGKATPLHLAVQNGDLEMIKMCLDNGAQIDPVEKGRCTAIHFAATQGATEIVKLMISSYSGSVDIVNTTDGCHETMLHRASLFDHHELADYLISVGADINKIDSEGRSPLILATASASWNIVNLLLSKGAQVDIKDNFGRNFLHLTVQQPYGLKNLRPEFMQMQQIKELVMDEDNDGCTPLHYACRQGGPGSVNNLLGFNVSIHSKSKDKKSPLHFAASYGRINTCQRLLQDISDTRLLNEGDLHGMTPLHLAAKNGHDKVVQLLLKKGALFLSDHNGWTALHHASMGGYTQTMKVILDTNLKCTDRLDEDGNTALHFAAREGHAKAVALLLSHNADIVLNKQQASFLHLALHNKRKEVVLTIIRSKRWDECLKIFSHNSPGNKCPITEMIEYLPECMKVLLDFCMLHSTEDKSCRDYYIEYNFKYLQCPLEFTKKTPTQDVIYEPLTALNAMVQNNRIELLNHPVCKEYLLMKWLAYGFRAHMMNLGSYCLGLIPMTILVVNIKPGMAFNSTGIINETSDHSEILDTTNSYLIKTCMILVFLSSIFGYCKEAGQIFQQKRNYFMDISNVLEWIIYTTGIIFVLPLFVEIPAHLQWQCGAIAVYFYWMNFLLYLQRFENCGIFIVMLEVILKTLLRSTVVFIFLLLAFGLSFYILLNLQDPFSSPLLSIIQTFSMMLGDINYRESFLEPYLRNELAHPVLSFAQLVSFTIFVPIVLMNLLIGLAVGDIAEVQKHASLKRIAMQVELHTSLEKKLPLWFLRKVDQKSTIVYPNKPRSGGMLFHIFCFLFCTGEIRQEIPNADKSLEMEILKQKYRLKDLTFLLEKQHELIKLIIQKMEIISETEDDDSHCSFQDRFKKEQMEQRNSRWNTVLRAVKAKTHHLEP
Description: In order to determine whether TRPA1 is activated, the intracellular calcium ion (Ca^2+) level from transfected cells with the TRPA1 receptor gene was measured. HEK-2 cells stably transfected with human TRPA1 were grown in 15 ml growth medium [high glucose DMEM (Dulbecco's Modification of Eagle's Medium) supplemented with 10% FBS (fetal bovine serum), 100 μg/ml Penicillin/streptomycin, 100 μg/ml G418] in a 75 Cm^2 flask for 3 days at 37° C. in a mammalian cell culture incubator set at 5% CO2. Cells were detached with addition of 10 ml of PBS (phosphate buffered saline) by hand shaking gently and transferred to a 50 ml tube and centrifuged at 850 rpm for 3 minutes to remove PBS. After centrifugation, a pellet of cells was formed in the bottom of the tube separating them from the supernatant solution. […] Fluo-4 is a fluorescent dye used for quantifying cellular Ca^2+ concentrations in the 100 nM to 1 μM range.
The pelleted cells were re-suspended in 10 ml assay buffer and 90 μl aliquots (˜50,000 cells) per well delivered to a 96-well assay plate containing 10 μl of test compounds (1 mM in assay buffer, final concentration 100 μM) or buffer control and incubated at room temperature for 30 minutes. After 30 minutes, the plate was placed into a fluorometric imaging plate reader (FLIPR384 from Molecular Devices) and basal fluorescence recorded (excitation wave length 488 nm and emission wave length 510 nm). Then 20 μl of the molecule being tested as a TRPA1 antagonist was added and fluorescence recorded. For determining the direct effect of test compounds on TRPA1, fluorescence was measured immediately after addition of each compound.
To determine if a compound was an antagonist or a desensitizer the direct effect of a test compound was determined. For determining the direct effect of test compounds on TRPA1 receptor activation, 100 μl aliquots (˜50,000 cells) of cells prepared as described above were delivered to a 96-well assay plate and basal fluorescence recorded as noted above. Then 20 μl of the compound being tested as a TRPA1 activator was added and fluorescence recorded. If any increase in fluorescence over background was noted, then the compound was considered an agonist.

[3] = antagonist 100 μM against 1 mM L-Menthol
[4] = 100 μM antagonist vs 1 mM L-Menthol

Chain of human TRPV1 (Q8NER1 whole entry): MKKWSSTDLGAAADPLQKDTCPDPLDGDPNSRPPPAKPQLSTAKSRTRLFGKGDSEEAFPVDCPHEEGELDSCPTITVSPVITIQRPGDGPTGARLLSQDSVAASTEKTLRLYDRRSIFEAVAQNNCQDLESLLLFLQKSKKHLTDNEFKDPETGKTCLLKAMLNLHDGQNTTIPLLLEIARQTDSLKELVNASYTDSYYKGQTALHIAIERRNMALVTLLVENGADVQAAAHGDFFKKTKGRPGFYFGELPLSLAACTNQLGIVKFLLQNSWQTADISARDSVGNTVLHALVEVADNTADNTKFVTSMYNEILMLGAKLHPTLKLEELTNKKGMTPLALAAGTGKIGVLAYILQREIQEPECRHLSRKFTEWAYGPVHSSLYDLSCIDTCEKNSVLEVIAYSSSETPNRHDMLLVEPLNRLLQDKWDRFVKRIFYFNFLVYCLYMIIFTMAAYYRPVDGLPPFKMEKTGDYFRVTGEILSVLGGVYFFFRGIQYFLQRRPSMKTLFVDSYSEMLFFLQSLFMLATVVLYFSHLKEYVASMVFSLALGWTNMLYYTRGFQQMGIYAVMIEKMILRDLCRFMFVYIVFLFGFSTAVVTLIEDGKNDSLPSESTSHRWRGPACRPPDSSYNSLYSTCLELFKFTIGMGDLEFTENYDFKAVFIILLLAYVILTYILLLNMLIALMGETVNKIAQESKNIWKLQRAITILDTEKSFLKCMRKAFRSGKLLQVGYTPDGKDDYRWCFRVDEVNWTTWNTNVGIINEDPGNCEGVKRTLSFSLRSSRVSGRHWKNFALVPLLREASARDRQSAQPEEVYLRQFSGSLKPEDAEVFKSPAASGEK

Compound	Average Ca2+ Counts [1, 3] [Counts]	inhibition at 100 µM [1] [%]	Block of L-Menthol activation of TRPA1 [2, 4]	% Reduction of L-Menthol TRPV1 Activation [1, 3] [%]	% Reduction of L-Menthol TRPV1 Activation [1] [%]	Average Ca2+ Counts [1] [Counts]	Block of L-Menthol activation of TRPA1 [2]
CC/C=C\CCOC(=O)CCC [cis-3-hexenyl butyrate]	2987.5	26	BLOCK ONLY MENTHOL/TRPA1	–	–	–	–
COc1ccc(COC=O)cc1 [4-methoxybenzyl formate]	1399.0	27.2	BLOCK ONLY MENTHOL/TRPA1	–	–	–	–
CCCOC(=O)C(C)=O [propyl pyruvate]	2386.5	40.9	BLOCK ONLY MENTHOL/TRPA1	–	–	–	–
CC(C)CC(=O)Cc1ccccc1 [4-methyl-1-phenyl-2-pentanone]	2707.0	32.9	BLOCK ONLY MENTHOL/TRPA1	–	–	–	–
CCOC(=O)C(=O)CC(=O)CC [ethyl 2,4-dioxohexanoate]	1000.3	45.7	BLOCK ONLY MENTHOL/TRPA1	–	–	–	–
CCCC/C=C\CCO [cis-3-octen-1-ol]	1424.7	26	BLOCK ONLY MENTHOL/TRPA1	–	–	–	–
COc1ccccc1C [o-methylanisole]	1107.3	40.7	BLOCK ONLY MENTHOL/TRPA1	–	–	–	–
CCC(C)SSC(C)CC (stereo not drawn) [sec-butyl disulfide]	3652.0	21.3	BLOCK ONLY MENTHOL/TRPA1	–	–	–	–
CC(=O)C=O [pyruvic aldehyde]	1504.0	–	BLOCK ONLY MENTHOL/TRPA1	22.3	–	–	–
C[N+](C)(C)CCO.O=C([O-])C(O)C(O)C(=O)O (stereo not drawn) [choline bitartrate]	–	–	–	–	39.1	1141.3	BLOCK ONLY MENTHOL/TRPA1
CCCCCC(=O)OCC [ethyl hexanoate]	3655.5	42.9	BLOCK ONLY MENTHOL/TRPA1	–	–	–	–
CCCCCCCCO [1-octanol]	1442.3	25.2	BLOCK ONLY MENTHOL/TRPA1	–	–	–	–
CCOC(=O)CCc1ccco1 [ethyl 3-(2-furyl)propionate]	4446.5	30.5	BLOCK ONLY MENTHOL/TRPA1	–	–	–	–
C=CCCCC(=O)OCC [ethyl 5-hexenoate]	1084.0	41.8	BLOCK ONLY MENTHOL/TRPA1	–	–	–	–
CCCCC/C=C/CCC(=O)OCC [ethyl trans-4-decenoate]	1454.3	24.6	BLOCK ONLY MENTHOL/TRPA1	–	–	–	–
COC(=O)c1cccnc1 [methyl nicotinate]	1483.7	23.3	BLOCK ONLY MENTHOL/TRPA1	–	–	–	–
O=COCc1ccccc1 [benzyl formate]	2923.5	27.6	BLOCK ONLY MENTHOL/TRPA1	–	–	–	–
COC(=O)c1ccccc1NC(C)=O [methyl 2-(acetylamino)benzoate]	1178.3	37.4	BLOCK ONLY MENTHOL/TRPA1	–	–	–	–
CCCOC(C)OCCc1ccccc1 (stereo not drawn) [2-(1-propoxyethoxy)ethylbenzene]	1480.7	23.4	BLOCK ONLY MENTHOL/TRPA1	–	–	–	–
COc1ccc(OC)cc1 [1,4-dimethoxybenzene]	3633.0	43.2	BLOCK ONLY MENTHOL/TRPA1	–	–	–	–
CCOC(=O)C(Cc1ccccc1)C(C)=O (stereo not drawn) [ethyl 2-benzylacetoacetate]	1548.3	20.3	BLOCK ONLY MENTHOL/TRPA1	–	–	–	–

Compound	Average Ca2+ Counts [1, 3] [Counts]	inhibition at 100 µM [1] [%]	Block of L-Menthol activation of TRPA1 [2, 4]	% Reduction of L-Menthol TRPV1 Activation [1, 3] [%]	% Reduction of L-Menthol TRPV1 Activation [1] [%]	Average Ca2+ Counts [1] [Counts]	Block of L-Menthol activation of TRPA1 [2]
iron naphthenate	2748.5	–	BLOCK ONLY MENTHOL/TRPA1	31.9	–	–	–
CC(=O)c1ccccc1O [2′-hydroxyacetophenone]	1083.3	41.8	BLOCK ONLY MENTHOL/TRPA1	–	–	–	–
CCCCCCCCCCCCCCCCOC(=O)C(C)O (stereo not drawn) [hexadecyl lactate]	1047.0	43.5	BLOCK ONLY MENTHOL/TRPA1	–	–	–	–
C/C=C(\C)C(=O)OC(C)C [isopropyl tiglate]	4497.5	29.7	BLOCK ONLY MENTHOL/TRPA1	–	–	–	–
CC(=O)c1nccs1 [2-acetylthiazole]	3569.5	23.1	BLOCK ONLY MENTHOL/TRPA1	–	–	–	–
CC1OCCC1=O (stereo not drawn) [2-methyltetrahydro-3-furanone]	993.7	46	BLOCK ONLY MENTHOL/TRPA1	–	–	–	–
Cc1nc(C)c(C)nc1C [2,3,5,6-tetramethylpyrazine]	972.0	47	BLOCK ONLY MENTHOL/TRPA1	–	–	–	–
CCCC(C)C(=O)OC (stereo not drawn) [methyl 2-methylpentanoate]	1529.3	21.2	BLOCK ONLY MENTHOL/TRPA1	–	–	–	–
CCOC(=O)CC [ethyl propionate]	2712.0	32.8	BLOCK ONLY MENTHOL/TRPA1	–	–	–	–
CCOC(=O)C1OC1c1ccccc1 (stereo not drawn) [ethyl 3-phenylglycidate]	1987.0	–	BLOCK ONLY MENTHOL/TRPA1	50.8	–	–	–
CC(C)CCOC=O [isopentyl formate]	1451.7	24.8	BLOCK ONLY MENTHOL/TRPA1	–	–	–	–
Cc1cnc(C)cn1 [2,5-dimethylpyrazine]	1040.0	43.8	BLOCK ONLY MENTHOL/TRPA1	–	–	–	–
CC(=O)OCC1CCCO1 (stereo not drawn) [tetrahydrofurfuryl acetate]	1269.3	33.2	BLOCK ONLY MENTHOL/TRPA1	–	–	–	–
CCC/C=C/COC(C)=O [trans-2-hexenyl acetate]	1119.0	40.2	BLOCK ONLY MENTHOL/TRPA1	–	–	–	–
CCCCCCCC/C=C\CCCCCCCC(=O)OCC [ethyl oleate]	1431.3	25.7	BLOCK ONLY MENTHOL/TRPA1	–	–	–	–
CCCCCCCCSC [methyl n-octyl sulfide]	1120.3	40.1	BLOCK ONLY MENTHOL/TRPA1	–	–	–	–
C=CCSCC=C [diallyl sulfide]	1293.3	32.1	BLOCK ONLY MENTHOL/TRPA1	–	–	–	–
C=C1CC/C=C(\C)CC[C@@H]2[C@@H]1CC2(C)C [beta-caryophyllene]	2744.5	–	BLOCK ONLY MENTHOL/TRPA1	32.0	–	–	–
O=C(C=Cc1ccccc1)OCC=Cc1ccccc1 [3-phenyl-2-propen-1-yl 3-phenylacrylate]	3377.0	47.2	BLOCK ONLY MENTHOL/TRPA1	–	–	–	–
COc1ccccc1C=O [2-methoxybenzaldehyde]	1050.3	43.3	BLOCK ONLY MENTHOL/TRPA1	–	–	–	–
CCCCCCCC=O [octanal]	2759.0	31.6	BLOCK ONLY MENTHOL/TRPA1	–	–	–	–
